Experimental data from patent publication US9175011B2, “Morpholino substituted urea or carbamate derivatives as MTOR inhibitors” (CELLZOME LIMITED, priority 2011, dated 2015).
pIC50: −log10 of the molar value.

What was measured:
[1] = biological target: T1, mTOR (Homo sapiens, UniProt P42345); experiment: mTOR kinobeads assay (Jurkat cell lysate, dot blot detection); type: binding; conditions: read-out: Inhibition values (IC50) mTor
T1 construct: Jurkat cells were homogenized in a Potter S homogenizer in lysis buffer; endogenous in cells; host or cells: Jurkat, clone E6-1 (ATCC TIB-152) lysate
Description: (§1) The compounds of the present invention as described were tested in the mTOR kinobeads assay as described below. Briefly, test compounds (at various concentrations) and the affinity matrix (1:1 mixture of beads with immobilized phenylthiazole ligand 1 and beads with immobilized phenylmorpholin-chromen ligand; WO 2009/098021) were added to cell lysate aliquots and allowed to bind to the proteins in the lysate sample. After the incubation time the beads with captured proteins were separated from the lysate. Bound proteins were then eluted and the presence of mTOR, PI3K alpha (PI3Kα), PI3K beta (PI3Kb), PI3K gamma (PI3Kg), PI3K delta (PI3Kd) and DNA-dependent protein kinase (DNA-PK) was detected and quantified using a specific antibody in a dot blot procedure and the Odyssey infrared detection system. Dose response curves for individual kinases were generated and IC50 values calculated. Kinobeads assays for PI3 kinases (WO-A 2008/015013) and for kinase selectivity profiling (WO 2009/098021) have been previously described.
(§2) The affinity matrix (beads with immobilized phenylmorpholin-chromen ligand) was washed three times with 15 ml of 1×DP buffer containing 0.2% NP40 (IGEPAL® CA-630, Sigma, #13021) and then resuspended in 5.5 ml of 1×DP buffer containing 0.2% NP40 (10% beads slurry).
(§3) 5×DP buffer: 250 mM Tris-HCl pH 7.4, 25% Glycerol, 7.5 mM MgCl2, 750 mM NaCl, 5 mM Na3VO4, filter the 5×-lysis buffer through 0.22 μm filter and store in aliquots at −80° C. The 5×DP buffer is diluted to 1×DP buffer containing 1 mM DTT and 25 mM NaF.
(§4) Stock solutions of test compounds were prepared in DMSO. In a 96 well plate 30 μl solution of diluted test compounds at 5 mM in DMSO were prepared. Starting with this solution a 1:3 dilution series (9 steps) was prepared. For control experiments (no test compound) a buffer containing 2% DMSO was used. Compound PI-103 served as a positive control (Calbiochem catalogue number 528100).
(§5) Jurkat cells (ATCC catalogue number TIB-152 Jurkat, clone E6-1) were grown in 1 liter Spinner flasks (Integra Biosciences, #182101) in suspension in RPMI 1640 medium (Invitrogen, #21875-034) supplemented with 10% Fetal Bovine Serum (Invitrogen) at a density between 0.15×10^6 and 1.2×10^6 cells/ml. Cells were harvested by centrifugation, washed once with 1×PBS buffer (Invitrogen, #14190-094) and cell pellets were frozen in liquid nitrogen and subsequently stored at −80° C.
(§6) Jurkat cells were homogenized in a Potter S homogenizer in lysis buffer: 50 mM Tris-HCl, 0.8% NP40, 5% glycerol, 150 mM NaCl, 1.5 mM MgCl2, 25 mM NaF, 1 mM sodium vanadate, 1 mM DTT, pH 7.5. One complete EDTA-free tablet (protease inhibitor cocktail, Roche Diagnostics, 1873580) per 25 ml buffer was added. The material was dounced 10 times using a mechanized POTTER S, transferred to 50 ml falcon tubes, incubated for 30 minutes on ice and spun down for 10 min at 20,000 g at 4° C. (10,000 rpm in Sorvall SLA600, precooled). The supernatant was transferred to an ultracentrifuge (UZ)-polycarbonate tube (Beckmann, 355654) and spun for 1 hour at 100.000 g at 4° C. (33.500 rpm in Ti50.2, precooled). The supernatant was transferred again to a fresh 50 ml falcon tube, the protein concentration was determined by a Bradford assay (BioRad) and samples containing 50 mg of protein per aliquot were prepared. The samples were immediately used for experiments or frozen in liquid nitrogen and stored frozen at −80° C.
(§7) Jurkat cell lysate (approximately 50 mg protein per plate) was thawed in a water bath at room temperature and then kept on ice. To the thawed cell lysate 1×DP 0.8% NP40 buffer containing protease inhibitors (1 tablet for 25 ml buffer; EDTA-free protease inhibitor cocktail; Roche Diagnostics 1873580) was added in order to reach a final protein concentration of 5 mg/ml total protein. The diluted cell lysate was stored on ice. […]

[2] = biological target: T2, PI3K gamma (PI3Kg) (Homo sapiens, UniProt P48736); experiment: kinobeads assay, PI3K gamma; type: binding; conditions: Jurkat cell lysate, read-out: Inhibition values (IC50) PI3Kg
T2 construct: Jurkat cells were homogenized in a Potter S homogenizer in lysis buffer; endogenous in cells; host or cells: Jurkat, clone E6-1 (ATCC TIB-152) lysate
T2 sequence (P48736 whole entry): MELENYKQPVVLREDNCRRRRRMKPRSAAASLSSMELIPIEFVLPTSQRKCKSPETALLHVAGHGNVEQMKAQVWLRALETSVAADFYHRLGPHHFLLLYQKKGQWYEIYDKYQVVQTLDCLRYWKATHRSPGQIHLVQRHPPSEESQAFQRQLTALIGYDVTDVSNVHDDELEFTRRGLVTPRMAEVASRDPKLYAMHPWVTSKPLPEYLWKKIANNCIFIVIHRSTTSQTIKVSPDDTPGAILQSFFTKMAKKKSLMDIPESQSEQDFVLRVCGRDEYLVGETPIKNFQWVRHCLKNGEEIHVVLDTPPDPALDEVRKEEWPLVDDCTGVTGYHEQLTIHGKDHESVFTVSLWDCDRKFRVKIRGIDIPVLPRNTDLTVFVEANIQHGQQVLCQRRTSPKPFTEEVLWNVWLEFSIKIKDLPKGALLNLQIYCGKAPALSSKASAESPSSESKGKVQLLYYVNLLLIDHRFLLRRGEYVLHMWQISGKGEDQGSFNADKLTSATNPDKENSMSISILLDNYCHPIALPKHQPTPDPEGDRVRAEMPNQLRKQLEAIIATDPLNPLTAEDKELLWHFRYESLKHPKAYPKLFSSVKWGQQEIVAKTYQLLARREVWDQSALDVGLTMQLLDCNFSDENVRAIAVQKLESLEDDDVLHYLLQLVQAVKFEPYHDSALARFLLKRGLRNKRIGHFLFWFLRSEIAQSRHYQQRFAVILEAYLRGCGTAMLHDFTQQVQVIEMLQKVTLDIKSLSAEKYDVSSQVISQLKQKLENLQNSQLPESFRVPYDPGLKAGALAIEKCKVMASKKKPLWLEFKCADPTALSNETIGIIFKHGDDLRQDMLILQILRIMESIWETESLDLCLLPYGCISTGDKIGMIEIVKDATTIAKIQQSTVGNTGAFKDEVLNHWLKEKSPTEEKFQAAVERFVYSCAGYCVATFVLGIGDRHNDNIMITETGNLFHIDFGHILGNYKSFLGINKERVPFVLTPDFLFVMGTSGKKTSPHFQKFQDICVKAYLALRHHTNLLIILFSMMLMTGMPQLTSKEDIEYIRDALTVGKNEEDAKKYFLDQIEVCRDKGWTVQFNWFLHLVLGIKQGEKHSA
Description: as §1, §2, §3, §4, §5, §6, §7

[3] = system: S6RP serine-240/244 phosphorylation; experiment: In vitro phospho-S6 cellular assay (HEK293T/17); type: cell-based; conditions: Homo sapiens; HEK293T/17 cells, 2 hours, pS6RP Ser240/244; read-out: Inhibition values (IC50) pS6
From the text: Activation of mTOR signaling results in phosphorylation of several downstream targets. In cells, mTOR exists in two different protein complexes. The mTOR Complex-1 (mTORC1) phosphorylates and activates S6 Kinase 1 (S6K1) and S6 Kinase 2 (S6K2) (also known as p70S6K) which then phosphorylate S6 Ribosomal Protein (S6RP) (also known as RPS6)3. S6RP is phosphorylated on serine 235, senile 236, serine 240 and serine 244 by both pS6K1 and pS6K2. The mTOR Complex-2 (mTORC2) phosphorylates AKT on serine 473 which activates the AKT signaling pathway.
The assay measures a test compound's inhibition of S6RP serine-240/244 phosphorylation and inhibition of Akt serine-473 phosphorylation in human embryonic kidney derived HEK293T/17 cells (ATCC CRL-11268).
The HEK293T/17 cell line is maintained in DMEM media (Invitrogen catalogue number 41965-039) supplemented with 10% FCS at 37° C. in a 5% CO2 humidified incubator. Cells are seeded in 96-well plates at 40,000 cells/well (pS6RP S240/244 assay) or 80,000 cells/well (pAkt 5473 assay) in 90 μl growth media (DMEM, 2% FCS). Plates are incubated for 1 hour in a humidified incubator to allow the cells to adhere. Cells are treated with 8 concentrations of test compounds or DMSO alone for controls (final DMSO concentration 0.1%) and incubated at 37° C. for 2 hours. Then 20 μl of 5× concentrated lysis buffer (750 mM NaCl, 100 mM Tris pH7.4, 5 mM ADTA, 5 mM EGTA, 5% Triton X-100) is added, plates are sealed and incubated for 15 minutes at 4° C. with gentle shaking After cell lysis, 25 μl cell lysate is transferred to a MesoScale plate coated with an antibody to pS6RP Ser240/244 (MesoScale Discovery K150DGD-3) or an antibody to pAkt Ser 473 (MesoScale Discovery K151DGD-3). Plates have been blocked before by incubation with 150 μl MesoScale Discovery Blocking Solution-A for 1 hour at room temperature followed by washing with 150 μl 1×Tris wash buffer per well. After the transfer of the cell lysate to the MSD plate, the pS6RP (or pAkt) protein is captured on the coated antibody by incubation at room temperature for 1 hour with gentle shaking. After the capture step the plate is washed three times with 150 μl of 1× Tris wash buffer per well. Then 25 μl detection antibody conjugated with a Sulfo-Tag is added and incubated for 1 hour at room temperature with gentle shaking. Subsequently the antibody solution is removed and the plate is washed 3 times with 150 μl 1×Tris wash buffer per well and 150 μl Read buffer is added. The plates are analysed on a MSD 2400 Plate Reader (MesoScale Discovery). Data analysis is performed using nonlinear regression for a sigmoidal dose-response with a variable slope.

[4] = biological target: T3, PI3K alpha (PI3Kα) (Homo sapiens, UniProt P42336); experiment: kinobeads assay, PI3K alpha; type: binding; conditions: Jurkat cell lysate, read-out: Inhibition values (IC50) PI3Ka
T3 construct: Jurkat cells were homogenized in a Potter S homogenizer in lysis buffer; endogenous in cells; host or cells: Jurkat, clone E6-1 (ATCC TIB-152) lysate
T3 sequence (P42336 whole entry): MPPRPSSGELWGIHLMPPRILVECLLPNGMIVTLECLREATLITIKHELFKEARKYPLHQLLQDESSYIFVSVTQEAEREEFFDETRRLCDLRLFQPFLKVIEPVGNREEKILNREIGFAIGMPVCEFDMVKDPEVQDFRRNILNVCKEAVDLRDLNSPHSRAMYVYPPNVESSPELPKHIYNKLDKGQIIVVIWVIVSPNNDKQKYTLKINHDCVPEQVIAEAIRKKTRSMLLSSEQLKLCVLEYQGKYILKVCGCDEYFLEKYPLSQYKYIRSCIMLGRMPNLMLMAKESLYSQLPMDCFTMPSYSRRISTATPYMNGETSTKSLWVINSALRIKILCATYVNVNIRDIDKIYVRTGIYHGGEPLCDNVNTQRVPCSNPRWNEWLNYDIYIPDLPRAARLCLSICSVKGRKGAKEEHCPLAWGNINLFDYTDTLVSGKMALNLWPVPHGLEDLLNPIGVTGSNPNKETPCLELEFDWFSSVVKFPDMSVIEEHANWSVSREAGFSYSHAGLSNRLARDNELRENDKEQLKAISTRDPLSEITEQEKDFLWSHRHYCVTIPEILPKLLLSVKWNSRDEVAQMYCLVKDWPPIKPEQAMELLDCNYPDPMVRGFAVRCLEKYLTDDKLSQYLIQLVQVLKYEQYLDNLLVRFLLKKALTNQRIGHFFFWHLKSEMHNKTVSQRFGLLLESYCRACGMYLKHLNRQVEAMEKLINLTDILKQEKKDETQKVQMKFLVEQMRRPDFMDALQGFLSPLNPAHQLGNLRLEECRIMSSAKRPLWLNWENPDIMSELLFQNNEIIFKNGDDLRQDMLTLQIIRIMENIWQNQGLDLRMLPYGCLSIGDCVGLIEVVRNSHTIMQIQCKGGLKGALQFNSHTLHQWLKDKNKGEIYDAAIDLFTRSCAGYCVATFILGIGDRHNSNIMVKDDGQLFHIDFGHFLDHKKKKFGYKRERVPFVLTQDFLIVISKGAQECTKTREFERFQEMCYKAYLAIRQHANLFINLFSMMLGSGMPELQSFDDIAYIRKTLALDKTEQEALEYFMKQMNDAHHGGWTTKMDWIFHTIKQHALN
T3 sequence (P27986 whole entry partner): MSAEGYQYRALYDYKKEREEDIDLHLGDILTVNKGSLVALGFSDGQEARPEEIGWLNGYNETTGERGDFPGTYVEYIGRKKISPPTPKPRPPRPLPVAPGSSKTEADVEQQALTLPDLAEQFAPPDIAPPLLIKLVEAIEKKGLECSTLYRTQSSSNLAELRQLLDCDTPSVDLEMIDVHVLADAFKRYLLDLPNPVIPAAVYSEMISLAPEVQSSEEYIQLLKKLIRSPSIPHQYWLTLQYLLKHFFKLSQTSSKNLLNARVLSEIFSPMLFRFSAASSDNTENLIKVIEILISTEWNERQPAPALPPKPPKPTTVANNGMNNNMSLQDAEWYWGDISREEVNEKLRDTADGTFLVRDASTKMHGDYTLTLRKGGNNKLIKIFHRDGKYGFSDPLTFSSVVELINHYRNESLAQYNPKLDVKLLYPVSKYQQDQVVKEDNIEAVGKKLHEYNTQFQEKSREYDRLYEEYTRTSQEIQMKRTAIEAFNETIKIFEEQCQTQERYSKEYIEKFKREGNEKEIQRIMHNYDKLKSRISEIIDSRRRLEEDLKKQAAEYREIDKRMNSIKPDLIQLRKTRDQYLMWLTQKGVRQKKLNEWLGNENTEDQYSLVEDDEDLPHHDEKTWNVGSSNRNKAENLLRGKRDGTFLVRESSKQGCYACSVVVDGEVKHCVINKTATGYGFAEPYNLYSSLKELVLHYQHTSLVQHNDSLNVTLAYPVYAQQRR
Description: as §1, §2, §3, §4, §5, §6, §7

[5] = biological target: T4, DNA-dependent protein kinase (DNA-PK) (Homo sapiens, UniProt P78527); experiment: kinobeads assay, DNA-PK; type: binding; conditions: Jurkat cell lysate, read-out: Inhibition values (IC50) DNA-PK
T4 construct: Jurkat cells were homogenized in a Potter S homogenizer in lysis buffer; endogenous in cells; host or cells: Jurkat, clone E6-1 (ATCC TIB-152) lysate
Description: as §1, §2, §3, §4, §5, §6, §7

[6] = biological target: T5, PI3K beta (PI3Kb) (Homo sapiens, UniProt P42338); experiment: kinobeads assay, PI3K beta; type: binding; conditions: Jurkat cell lysate, read-out: Inhibition values (IC50) PI3Kb
T5 construct: Jurkat cells were homogenized in a Potter S homogenizer in lysis buffer; endogenous in cells; host or cells: Jurkat, clone E6-1 (ATCC TIB-152) lysate
T5 sequence (P42338 whole entry): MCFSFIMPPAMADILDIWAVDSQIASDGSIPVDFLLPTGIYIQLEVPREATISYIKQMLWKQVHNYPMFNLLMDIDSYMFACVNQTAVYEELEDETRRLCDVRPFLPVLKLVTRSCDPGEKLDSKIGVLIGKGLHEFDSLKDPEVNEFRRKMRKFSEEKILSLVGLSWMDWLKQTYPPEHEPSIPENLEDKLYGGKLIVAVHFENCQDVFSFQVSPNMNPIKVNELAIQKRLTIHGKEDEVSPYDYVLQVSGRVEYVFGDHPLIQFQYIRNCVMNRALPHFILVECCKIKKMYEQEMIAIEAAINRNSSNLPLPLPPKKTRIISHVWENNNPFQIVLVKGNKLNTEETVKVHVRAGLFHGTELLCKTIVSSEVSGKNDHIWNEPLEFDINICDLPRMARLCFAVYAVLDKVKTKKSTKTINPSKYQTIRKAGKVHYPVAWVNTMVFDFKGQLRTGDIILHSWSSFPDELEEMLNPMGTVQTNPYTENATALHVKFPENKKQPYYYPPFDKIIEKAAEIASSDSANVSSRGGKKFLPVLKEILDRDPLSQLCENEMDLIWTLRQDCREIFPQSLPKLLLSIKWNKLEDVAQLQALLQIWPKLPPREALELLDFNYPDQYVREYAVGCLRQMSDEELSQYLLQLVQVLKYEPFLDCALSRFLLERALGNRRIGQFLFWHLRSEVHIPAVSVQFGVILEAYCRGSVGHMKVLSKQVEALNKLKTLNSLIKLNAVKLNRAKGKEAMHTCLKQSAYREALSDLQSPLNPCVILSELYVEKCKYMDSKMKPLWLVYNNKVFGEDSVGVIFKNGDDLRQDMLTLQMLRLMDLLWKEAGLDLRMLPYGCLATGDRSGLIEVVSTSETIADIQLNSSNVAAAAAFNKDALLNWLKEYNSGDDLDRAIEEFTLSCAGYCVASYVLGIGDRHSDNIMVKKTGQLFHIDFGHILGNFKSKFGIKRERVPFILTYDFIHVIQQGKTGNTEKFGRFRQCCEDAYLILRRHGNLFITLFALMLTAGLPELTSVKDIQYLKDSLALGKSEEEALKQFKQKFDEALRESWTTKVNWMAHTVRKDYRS
T5 sequence (P27986 whole entry partner): as the sequence (P27986 whole entry partner) above
Description: as §1, §2, §3, §4, §5, §6, §7

[7] = biological target: T6, PI3K delta (PI3Kd) (Homo sapiens, UniProt O00329); experiment: kinobeads assay, PI3K delta; type: binding; conditions: Jurkat cell lysate, read-out: Inhibition values (IC50) PI3Kd
T6 construct: Jurkat cells were homogenized in a Potter S homogenizer in lysis buffer; endogenous in cells; host or cells: Jurkat, clone E6-1 (ATCC TIB-152) lysate
T6 sequence (O00329 whole entry): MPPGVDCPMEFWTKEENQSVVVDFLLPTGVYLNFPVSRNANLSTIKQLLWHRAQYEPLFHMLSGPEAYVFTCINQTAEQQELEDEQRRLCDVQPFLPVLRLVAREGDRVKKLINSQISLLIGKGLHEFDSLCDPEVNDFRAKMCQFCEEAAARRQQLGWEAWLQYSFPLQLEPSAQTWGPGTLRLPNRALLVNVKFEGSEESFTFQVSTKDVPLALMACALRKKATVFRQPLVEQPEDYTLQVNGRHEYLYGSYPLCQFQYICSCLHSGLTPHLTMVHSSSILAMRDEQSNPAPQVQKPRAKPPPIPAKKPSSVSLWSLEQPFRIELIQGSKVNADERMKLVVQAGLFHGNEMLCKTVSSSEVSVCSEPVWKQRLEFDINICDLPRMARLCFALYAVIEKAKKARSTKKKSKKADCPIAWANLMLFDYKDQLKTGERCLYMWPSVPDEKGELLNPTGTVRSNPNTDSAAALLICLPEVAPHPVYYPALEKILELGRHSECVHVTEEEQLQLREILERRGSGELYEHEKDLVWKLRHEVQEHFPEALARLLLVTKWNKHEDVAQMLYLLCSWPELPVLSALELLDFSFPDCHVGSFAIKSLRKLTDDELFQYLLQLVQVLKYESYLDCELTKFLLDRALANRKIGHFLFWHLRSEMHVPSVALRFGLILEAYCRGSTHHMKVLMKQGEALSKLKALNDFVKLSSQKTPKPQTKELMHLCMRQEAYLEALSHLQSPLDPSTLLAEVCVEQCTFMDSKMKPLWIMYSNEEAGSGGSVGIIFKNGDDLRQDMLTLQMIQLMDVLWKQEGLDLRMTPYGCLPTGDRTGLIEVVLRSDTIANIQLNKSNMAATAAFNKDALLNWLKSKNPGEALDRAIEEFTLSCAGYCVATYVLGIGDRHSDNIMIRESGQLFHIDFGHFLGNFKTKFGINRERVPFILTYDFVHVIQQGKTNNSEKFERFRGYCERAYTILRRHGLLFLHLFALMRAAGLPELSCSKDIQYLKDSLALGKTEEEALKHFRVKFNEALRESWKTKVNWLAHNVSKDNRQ
T6 sequence (P27986 whole entry partner): as the sequence (P27986 whole entry partner) above
Description: as §1, §2, §3, §4, §5, §6, §7

SMILES	pIC50 [1]	pIC50 [2]	pIC50 [3]	pIC50 [4]	pIC50 [5]	pIC50 [6]	pIC50 [7]
CS(=O)(=O)c1ccccc1-c1nc(-c2ccc(NC(=O)NC3CC3)cc2)nc(N2C3CCC2COC3)n1 [Example 16, 1-(4-(4-(3-oxa-8-azabicyclo[3.2.1]octan-8-yl)-6-(2-(methylsulfonyl)phenyl)-1,3,5-triazin-2-yl)phenyl)-3-cyclopropylurea]	6.00 to 7.00	< 5.00	> 7.00	< 5.00	< 5.00	< 5.00	< 5.00
CCS(=O)(=O)c1ccccc1-c1nc(-c2ccc(NC(=O)NC3CC3)cc2)nc(N2CCOC[C@@H]2C)n1 [Example 17, (S)-1-cyclopropyl-3-(4-(4-(2-(ethylsulfonyl)phenyl)-6-(3-methylmorpholino)-1,3,5-triazin-2-yl)phenyl)urea]	6.00 to 7.00	< 5.00	> 7.00	< 5.00	< 5.00	< 5.00	< 5.00
CCCNC(=O)Nc1ccc(-c2nc(-c3ccccc3S(C)(=O)=O)nc(N3CCOC[C@@H]3C)n2)cc1 [Example 18, (S)-1-(4-(4-(3-methylmorpholino)-6-(2-(methylsulfonyl)phenyl)-1,3,5-triazin-2-yl)phenyl)-3-propylurea]	6.00 to 7.00	< 5.00	> 7.00	< 5.00	< 5.00	< 5.00	< 5.00
CC(C)CNC(=O)Nc1ccc(-c2nc(-c3ccccc3S(C)(=O)=O)nc(N3CCOC[C@@H]3C)n2)cc1 [Example 19, (S)-1-isobutyl-3-(4-(4-(3-methylmorpholino)-6-(2-(methylsulfonyl)phenyl)-1,3,5-triazin-2-yl)phenyl)urea]	5.00 to 6.00	< 5.00	6.00 to 7.00	< 5.00	< 5.00	< 5.00	< 5.00
C[C@H]1COCCN1c1nc(-c2ccc(NC(=O)NC3CCCC3)cc2)nc(-c2ccccc2S(C)(=O)=O)n1 [Example 20, (S)-1-cyclopentyl-3-(4-(4-(3-methylmorpholino)-6-(2-(methylsulfonyl)phenyl)-1,3,5-triazin-2-yl)phenyl)urea]	6.00 to 7.00	< 5.00	> 7.00	5.00 to 6.00	5.00 to 6.00	5.00 to 6.00	< 5.00
CS(=O)(=O)c1ccccc1-c1nc(-c2ccc(NC(=O)NC3CC3)cc2)nc(N2CCCOCC2)n1 [Example 21, 1-cyclopropyl-3-(4-(4-(2-(methylsulfonyl)phenyl)-6-(1,4-oxazepan-4-yl)-1,3,5-triazin-2-yl)phenyl)urea]	6.00 to 7.00	< 5.00	6.00 to 7.00	< 5.00	< 5.00	< 5.00	< 5.00

Results, then the compound that gave them:

pIC50 [1]	pIC50 [2]	pIC50 [3]	pIC50 [4]	pIC50 [5]	pIC50 [6]	pIC50 [7]	SMILES
6.00 to 7.00	< 5.00	> 7.00	< 5.00	< 5.00	< 5.00	< 5.00	CC1(C)COCCN1c1nc(-c2ccc(NC(=O)NC3CC3)cc2)nc(-c2ccccc2S(C)(=O)=O)n1 [Example 22, 1-cyclopropyl-3-(4-(4-(3,3-dimethylmorpholino)-6-(2-(methylsulfonyl)phenyl)-1,3,5-triazin-2-yl)phenyl)urea]
6.00 to 7.00	< 5.00	> 7.00	< 5.00	< 5.00	< 5.00	< 5.00	C[C@H]1COCCN1c1nc(-c2ccc(NC(=O)Nc3ccc(CO)cc3)cc2)nc(-c2ccccc2S(C)(=O)=O)n1 [Example 25, (S)-1-(4-(hydroxymethyl)phenyl)-3-(4-(4-(3-methylmorpholino)-6-(2-(methylsulfonyl)phenyl)-1,3,5-triazin-2-yl)phenyl)urea]
6.00 to 7.00	< 5.00	> 7.00	< 5.00	< 5.00	< 5.00	< 5.00	C[C@H]1COCCN1c1nc(-c2ccc(NC(=O)NC3CC3)cc2)nc(-c2ccccc2S(=O)(=O)N2CCCC2)n1 [Example 26, (S)-1-cyclopropyl-3-(4-(4-(3-methylmorpholino)-6-(2-(pyrrolidin-1-ylsulfonyl)phenyl)-1,3,5-triazin-2-yl)phenyl)urea]
6.00 to 7.00	< 5.00	> 7.00	< 5.00	< 5.00	< 5.00	< 5.00	C[C@H]1COCCN1c1nc(-c2ccc(NC(=O)NC3CCC3)cc2)nc(-c2ccccc2S(C)(=O)=O)n1 [Example 27, (S)-1-cyclobutyl-3-(4-(4-(3-methylmorpholino)-6-(2-(methylsulfonyl)phenyl)-1,3,5-triazin-2-yl)phenyl)urea]
